Measurements reported in publication PMC3038857, “Using Nuclear Receptor Activity to Stratify Hepatocarcinogens” (PLoS ONE, 2011).
Read-outs that look alike come from different tables or passages of the source.

What was measured:
[1] = system: Mouse Liver; conditions: ref ToxRefDB, cited from earlier work
[2] = system: Mouse Liver; conditions: ref ToxRefDB, cited from earlier work; remark: listed apart in the source
[3] = system: Mouse Liver; conditions: ref ToxRefDB, cited from earlier work; remark: listed apart in the source
[4] = system: Rat Liver; conditions: ref ToxRefDB, cited from earlier work
[5] = system: Rat Liver; conditions: ref ToxRefDB, cited from earlier work; remark: listed apart in the source
[6] = system: Rat Liver; conditions: ref ToxRefDB, cited from earlier work; remark: listed apart in the source
[7] = target: T1, PPARG (peroxisome proliferator-activated receptor gamma) (Homo sapiens, UniProt P37231); assay: ATG_PPARg_TRANS: Factorial reporter gene assay (HepG2); type: cell-based; conditions: HepG2
T1 construct: expressed in transfected cells; host or cells: HepG2
T1 sequence (P37231 1-505): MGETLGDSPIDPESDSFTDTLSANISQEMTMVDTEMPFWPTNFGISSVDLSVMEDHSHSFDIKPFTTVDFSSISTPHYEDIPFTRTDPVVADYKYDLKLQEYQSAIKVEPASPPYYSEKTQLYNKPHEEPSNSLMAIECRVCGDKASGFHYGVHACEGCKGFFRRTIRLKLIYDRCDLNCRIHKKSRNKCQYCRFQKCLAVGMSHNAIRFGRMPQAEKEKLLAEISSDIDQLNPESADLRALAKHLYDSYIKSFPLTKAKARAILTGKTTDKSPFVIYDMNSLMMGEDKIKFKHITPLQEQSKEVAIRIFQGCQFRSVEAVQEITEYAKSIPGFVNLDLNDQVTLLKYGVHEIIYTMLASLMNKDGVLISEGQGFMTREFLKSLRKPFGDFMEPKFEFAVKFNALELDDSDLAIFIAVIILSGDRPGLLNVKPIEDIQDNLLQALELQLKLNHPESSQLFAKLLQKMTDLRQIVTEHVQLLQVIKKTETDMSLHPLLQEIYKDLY
Procedure: (§1) A multiple reporter transcription unit (MRTU) library consisting of 48 transcription factor binding sites was transfected into the HepG2 human liver hepatoma cell line. In addition to the cis-acting reporter genes (CIS), a modification of the approach was used to generate a trans-system (TRANS) with a mammalian one-hybrid assay consisting of an additional 25 MRTU library reporting the activity of nuclear receptor super-family members. […] These assays were performed by Attagene Inc. (Morrisville NC) under contract to EPA.
(§2) In addition to the cis-acting reporter genes (CIS), a modification of the approach was used to generate a trans-system (TRANS) with a mammalian one-hybrid assay consisting of an additional 25 MRTU library reporting the activity of nuclear receptor super-family members. […] Chemicals were then tested in the CIS and TRANS assays at seven concentrations starting at the MTC and followed by three-fold serial dilutions. These assays were performed by Attagene Inc. (Morrisville NC) under contract to EPA. Detailed description of the methods, data and analysis methods for this dataset will be presented in a separate publication.

[8] = system: CYP1A1; assay: CLZD_CYP1A1: Change in expression of CYP1A1 (primary human hepatocytes); type: cell-based; conditions: 24 hr
Procedure: (§3) This is a collection of multiplexed gene expression assays focused on Phase I and II xenobiotic metabolizing enzymes and transporters. Human primary cell cultures were treated with chemicals at 5 concentrations (0.004-40 [drawing 42] M) for 6, 24 and 48 hr. Concentration- and time-response profiles of chemicals were measured by the expression of key nuclear receptor target genes, activities of CYP1A enzymes (EROD), and cell morphology. Fourteen gene targets were monitored by quantitative nuclease protection assay including: six representative cytochrome P-450 genes, four hepatic transporters, three Phase II conjugating enzymes, and one endogenous metabolism gene involved in cholesterol synthesis. The target genes associated with nuclear receptor pathways are as follows: [drawing 43] and [drawing 44] with [drawing 45]; [drawing 46] , [drawing 47] , [drawing 48] , [drawing 49] , [drawing 50] and [drawing 51] with [drawing 52]; [drawing 53] , [drawing 54] , [drawing 55] and [drawing 56] with [drawing 57]; [drawing 58] with [drawing 59]; and [drawing 60] with [drawing 61] . Assays were run in primary human hepatocyte cultures by CellzDirect Invitrogen Inc. (Durham, NC), in collaboration with EPA.
(§4) Multiplexed Gene Expression in Human Primary Hepatocytes: This is a collection of multiplexed gene expression assays focused on Phase I and II metabolic enzymes and transporters. […] Fourteen gene targets were monitored by quantitative nuclease protection assay: six representative cytochrome P450 genes, four hepatic transporters, three Phase II conjugating enzymes, and one endogenous metabolism gene involved in cholesterol synthesis. Cells were exposed at 5 concentrations (0.004-40 µM) for 6, 24 or 48 hr. Gene targets are sentinels for five nuclear receptor signaling pathways: AhR, CAR, PXR, FXR, and PPARα. All gene are associated with nuclear receptor pathways: CYP1A1 and CYP1A2 with AHR; ABCB1, ABCG2, CYP2B6, CYP2C9, CYP2C19 and UGT1A1 with CAR; CYP3A4, GSTA2, SLCO1B1 and SULT2A1 with PXR; HMGCS2 with PPARA; and ABCB11 with FXR. […] Detailed description of the methods, data and analysis methods for this dataset will be presented in a separate publication.

[9] = system: CYP2B6; assay: CLZD_CYP2B6: Change in expression of CYP2B6 (primary human hepatocytes); type: cell-based; conditions: 24 hr
Procedure: as §3, §4

[10] = target: T2, PXR (NR1I2) (Homo sapiens, UniProt O75469); assay: NVS_NR_hPXR: Human PXR Fluormone PXR (SXR) green (cell-free HTS); type: binding
T2 sequence (O75469 1-434): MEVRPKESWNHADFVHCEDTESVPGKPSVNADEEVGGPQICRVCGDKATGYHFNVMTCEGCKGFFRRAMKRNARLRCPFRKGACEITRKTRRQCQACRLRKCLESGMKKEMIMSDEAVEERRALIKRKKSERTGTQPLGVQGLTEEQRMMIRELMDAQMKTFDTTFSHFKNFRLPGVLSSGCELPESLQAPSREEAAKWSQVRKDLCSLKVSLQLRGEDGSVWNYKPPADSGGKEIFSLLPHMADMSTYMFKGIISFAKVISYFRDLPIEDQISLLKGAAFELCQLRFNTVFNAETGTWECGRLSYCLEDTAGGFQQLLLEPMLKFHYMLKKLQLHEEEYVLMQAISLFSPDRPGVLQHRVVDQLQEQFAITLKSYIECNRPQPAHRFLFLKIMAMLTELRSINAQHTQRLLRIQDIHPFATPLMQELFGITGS
Description: These are a collection of biochemical assays measuring binding constants and enzyme inhibition values. Chemicals were initially screened at a single concentration in duplicate wells at a concentration of 10 [drawing 63] M for cytochrome P-450 assays and 25 [drawing 64] M for all others. […] These assays were run by Caliper Life Sciences (Hanover, MD) under contract to EPA. Short assay descriptions are available at: http://www.caliperls.com/products/contract-research/in-vitro/.
Cell-free HTS Assays: A collection of biochemical assays measuring binding constants and enzyme inhibition values. […] These assays were run by Caliper Life Sciences (Hanover, MD) under contract to EPA. Short assay descriptions are available at http://www.caliperls.com/products/contract-research/in-vitro/. Values for all endpoints were imported into GeneData Screener (Basel, Switzerland) and normalised to solvent controls from the same plate as the tested compounds and expressed as percent of neutral control. Concentration-response curves were fit in GeneData Screener (Basel, Switzerland) Condeseo module using the Hill equation and AC50 values were determined. […] Detailed description of the methods, data and analysis methods for this dataset are described in a separate publication.

[11] = target: T2, PXR (NR1I2); assay: ATG_PXR_TRANS: Factorial reporter gene assay (HepG2); type: cell-based; parameters: endogenous in cells; host or cells: HepG2; conditions: HepG2
Procedure: as §1, §2

[12] = target: T2, PXR (NR1I2); assay: ATG_PXRE_CIS: Factorial reporter gene assay (HepG2); type: cell-based; parameters: endogenous in cells; host or cells: HepG2; conditions: HepG2
Procedure: as §1, §2

[13] = mouse chronic study, liver, any lesion, coded 6 / Inf, code not explained in the table
[14] = mouse chronic study, liver, preneoplastic lesion, coded 6 / Inf, code not explained in the table
[15] = mouse chronic study, liver, neoplastic lesion, coded 6 / Inf, code not explained in the table
[16] = rat chronic study, liver, any lesion, coded 6 / 0, code not explained in the table
[17] = rat chronic study, liver, preneoplastic lesion, coded 6 / 0, code not explained in the table
[18] = rat chronic study, liver, neoplastic lesion, coded 6 / 0, code not explained in the table
[19] = mouse chronic study, liver, coded 6 / Inf, code not explained in table
[20] = rat chronic study, liver, coded 6 / 0, code not explained in table

Which CHR_Mouse_Liver_1_AnyLesion [1, 13] does the source give for CCCCNC(=O)OCC#CI [Dataset S3 row 7] here?
The CHR_Mouse_Liver_1_AnyLesion was 6.

What about the CHR_Mouse_Liver_2_PreneoplasticLesion [2, 14] of the same compound?
The CHR_Mouse_Liver_2_PreneoplasticLesion was 6.

What about the CHR_Mouse_Liver_3_NeoplasticLesion [3, 15] of the same compound?
Its CHR_Mouse_Liver_3_NeoplasticLesion is 6.

And the CHR_Rat_Liver_1_AnyLesion [4, 16]?
The CHR_Rat_Liver_1_AnyLesion was 6.

What about the CHR_Rat_Liver_2_PreneoplasticLesion [5, 17] of the same compound?
Its CHR_Rat_Liver_2_PreneoplasticLesion is 0.

What about the CHR_Rat_Liver_3_NeoplasticLesion [6, 18] of the same compound?
Its CHR_Rat_Liver_3_NeoplasticLesion is 0.

For CC1=NNC(=O)N(/N=C/c2cccnc2)C1 [r269], which CHR_Mouse_Liver_1_AnyLesion ([1]; chronic study, mouse liver) is on record?
Its CHR_Mouse_Liver_1_AnyLesion is 6.

And the CHR_Mouse_Liver_2_PreneoplasticLesion ([2]; chronic study, mouse liver)?
Its CHR_Mouse_Liver_2_PreneoplasticLesion is 6.

And the CHR_Mouse_Liver_3_NeoplasticLesion ([3]; chronic study, mouse liver)?
Its CHR_Mouse_Liver_3_NeoplasticLesion is 6.

What about the CHR_Rat_Liver_1_AnyLesion ([4]; chronic study, rat liver) of the same compound?
The CHR_Rat_Liver_1_AnyLesion was 6.

What about the CHR_Rat_Liver_2_PreneoplasticLesion ([5]; chronic study, rat liver) of the same compound?
Its CHR_Rat_Liver_2_PreneoplasticLesion is 6.

What about the CHR_Rat_Liver_3_NeoplasticLesion ([6]; chronic study, rat liver) of the same compound?
Its CHR_Rat_Liver_3_NeoplasticLesion is 6.

Which CHR_Mouse_Liver_1_AnyLesion [1, 13] does the source give for CCCCNC(=O)n1c(NC(=O)OC)nc2ccccc21 [Dataset S3 row 27] here?
The CHR_Mouse_Liver_1_AnyLesion was 6.

What about the CHR_Mouse_Liver_2_PreneoplasticLesion [2, 14] of the same compound?
Its CHR_Mouse_Liver_2_PreneoplasticLesion is 6.

What about the CHR_Mouse_Liver_3_NeoplasticLesion [3, 15] of the same compound?
Its CHR_Mouse_Liver_3_NeoplasticLesion is 6.

What does the source list for CCC(CC)Nc1c([N+](=O)[O-])cc(C)c(C)c1[N+](=O)[O-] [r238]?
ATG_PPARg_TRANS [7]: 4.167; CLZD_CYP1A1_24 [8]: 5.24; CLZD_CYP2B6_24 [9]: 4.988; NVS_NR_hPXR [10]: 5.143; CHR_Rat_Liver_1_AnyLesion ([4]; rat, chronic study): 6; CHR_Rat_Liver_2_PreneoplasticLesion ([5]; rat, chronic study): 6; CHR_Rat_Liver_3_NeoplasticLesion ([6]; rat, chronic study): 0; ATG_PXR_TRANS [11]: 4.432; ATG_PXRE_CIS [12]: 4.959

Which CHR_Mouse_Liver_1_AnyLesion [1, 19] does the source give for CC(C)(C)C(O)C(Oc1ccc(Cl)cc1)n1cncn1 (stereo not drawn) [chemical 305] here?
The CHR_Mouse_Liver_1_AnyLesion was 6.

And the CHR_Mouse_Liver_2_PreneoplasticLesion [2, 19]?
The CHR_Mouse_Liver_2_PreneoplasticLesion was 6.

What about the CHR_Mouse_Liver_3_NeoplasticLesion [3, 19] of the same compound?
Its CHR_Mouse_Liver_3_NeoplasticLesion is 6.

What about the CHR_Rat_Liver_1_AnyLesion [4, 20] of the same compound?
Its CHR_Rat_Liver_1_AnyLesion is 0.

And the CHR_Rat_Liver_2_PreneoplasticLesion [5, 20]?
Its CHR_Rat_Liver_2_PreneoplasticLesion is 0.

What about the CHR_Rat_Liver_3_NeoplasticLesion [6, 20] of the same compound?
The CHR_Rat_Liver_3_NeoplasticLesion was 0.

With Cc1ccc(/N=C/N(C)/C=N/c2ccc(C)cc2C)c(C)c1 [Dataset S3 row 18] as the compound, how does the CHR_Mouse_Liver_1_AnyLesion [1, 13] read?
Its CHR_Mouse_Liver_1_AnyLesion is 6.

And the CHR_Mouse_Liver_2_PreneoplasticLesion [2, 14]?
Its CHR_Mouse_Liver_2_PreneoplasticLesion is 6.

What about the CHR_Mouse_Liver_3_NeoplasticLesion [3, 15] of the same compound?
Its CHR_Mouse_Liver_3_NeoplasticLesion is 6.

What about the CHR_Rat_Liver_1_AnyLesion [4, 16] of the same compound?
Its CHR_Rat_Liver_1_AnyLesion is 0.

What about the CHR_Rat_Liver_2_PreneoplasticLesion [5, 17] of the same compound?
Its CHR_Rat_Liver_2_PreneoplasticLesion is 0.

What about the CHR_Rat_Liver_3_NeoplasticLesion [6, 18] of the same compound?
The CHR_Rat_Liver_3_NeoplasticLesion was 0.

With C=CC1(C)OC(=O)N(c2cc(Cl)cc(Cl)c2)C1=O (stereo not drawn) [chemical 319] as the compound, how does the CHR_Mouse_Liver_1_AnyLesion [1, 19] read?
The CHR_Mouse_Liver_1_AnyLesion was 6.

What about the CHR_Mouse_Liver_2_PreneoplasticLesion [2, 19] of the same compound?
The CHR_Mouse_Liver_2_PreneoplasticLesion was 6.

And the CHR_Mouse_Liver_3_NeoplasticLesion [3, 19]?
Its CHR_Mouse_Liver_3_NeoplasticLesion is 6.

What about the CHR_Rat_Liver_1_AnyLesion [4, 20] of the same compound?
Its CHR_Rat_Liver_1_AnyLesion is 6.

What about the CHR_Rat_Liver_2_PreneoplasticLesion [5, 20] of the same compound?
The CHR_Rat_Liver_2_PreneoplasticLesion was 6.

What about the CHR_Rat_Liver_3_NeoplasticLesion [6, 20] of the same compound?
The CHR_Rat_Liver_3_NeoplasticLesion was 6.
